From patent publication US9738603B2, “Complex of glucose derivative and proline, crystal, preparation method and use” (SHANGHAI YINGLI PHARMACEUTICAL CO., LTD., priority 2012, dated 2017) come the findings set out here.

Entries after “also recorded” stand apart in the source; their conditions may differ.

This data set in a line: Dynamic vapor sorption test. The data set is classed as physicochemical. As to conditions: 25° C.; for weight increased finally: 95% RH; for sensitivity to moisture / hygroscopicity: dynamic vapor sorption isotherm, 0-95% RH. How it is done:
2. Parameters of dynamic vapor sorption test: The instrument: a dynamic moisture absorption analyzer (DVS Advantage, Surface Measurement System Ltd); Experimental temperature: 25° C.; Adsorption range: 0-95% relative humidity; Step interval: 5% relative humidity; Balance standard of weight gain: less than 0.01% weight change in 5 minutes; Longest time of balance: 120 minutes.

`OC[C@H]1O[C@@H](c2ccc(Cl)c(Cc3ccc(OCC4(F)COC4)cc3)c2)[C@H](O)[C@@H](O)[C@@H]1O` [compound A, (2S,3R,4R,5S,6R)-2-(4-chloro-3-(4-((3-fluorooxetan-3-yl)methoxy)benzyl)phenyl)-6-(hydroxymethyl)tetrahydro-2H-pyran-3,4,5-triol]: the weight increased finally stood at 14.72% and the “sensitivity to moisture / hygroscopicity” value is recorded as “sensitive to moisture”. The moisture absorbed entry (relative humidity 50%) is “about 4.8%”.
On to `OC[C@H]1O[C@@H](c2ccc(Cl)c(Cc3ccc(OCC4(F)COC4)cc3)c2)[C@H](O)[C@@H](O)[C@@H]1O` [eutectic crystal of the complex formed by compound A and L-p] [complex of (2S,3R,4R,5S,6R)-2-(4-chloro-3-(4-((3-fluorooxetan-3-yl)methoxy)benzyl)phenyl)-6-(hydroxymethyl)tetrahydro-2H-pyran-3,4,5-triol and bis(L-proline)], for which the weight increased finally entry is listed as “about 9.967%” and the “sensitivity to moisture / hygroscopicity” value was “not very sensitive to moisture; also recorded: low hygroscopicity”. The “moisture absorbed (weight gain against dry weight)” value (relative humidity increased from 0% to 85% RH) amounted to 2.174%.
